Source: patent publication US20260191841A1, “TREATMENT OF CHRONIC KIDNEY DISEASE IN TYPE I DIABETES MELLITUS” (BAYER AKTIENGESELLSCHAFT, priority 2022, published 2026)

How the values were obtained:
[1] = FIDELITY UACR mixed model, restricted to patients with UACR>=200 mg/g and eGFR between 25 and 90 ml/min/1.73 m^2; type: in vivo, human; settings: FIDELITY restricted population
Protocol: UACR will be analyzed assuming a lognormal distribution. Assumptions for the UACR ratios to baseline at 6 months are based on the FIDELITY UACR mixed model restricted to patients with UACR>=200 mg/g and eGFR between 25 and 90 ml/min/1.73 m^2.
In the FIDELITY restricted population, the UACR ratio to baseline after 4 months was 0.61 and 0.53 after 12 months in the finerenone group. The value, using interpolation, at 6 months was estimated to be 0.59. As a conservative approach, we will assume the treatment ratio (finerenone/placebo) over 6 months to be 0.7 (i.e., the difference in UACR ratio to baseline between finerenone and placebo to be 30%). The standard deviation was calculated to range from 0.75 and 1.0 between month 4 and 12. Using linear interpolation, at month 6 it was assumed to be approximately 0.8.

[2] = patients with T2D; coadministered with an ACEI or an ARB; cited from earlier work
[3] = patients with CKD and T1D; vs placebo; cited from earlier work

Row | Structure (SMILES) | UACR ratio to baseline ([1]; after 4 months, finerenone group) | UACR ratio to baseline ([1]; after 12 months, finerenone group) | UACR ratio to baseline ([1]; at 6 months, estimated using interpolation) | cardiovascular morbidity [2] | progression of diabetic kidney disease [2] | albuminuria [3] | rate of kidney function decline [3]
1 | CCOc1ncc(C)c2c1[C@H](c1ccc(C#N)cc1OC)C(C(N)=O)=C(C)N2 [finerenone, (4S)-4-(4-cyano-2-methoxyphenyl)-5-ethoxy-2,8-dimethyl-1,4-dihydro-1,6-naphthyridine-3-carboxamide] | 0.61 | 0.53 | 0.59 | reduces cardiovascular morbidity | delays the progression of diabetic kidney disease |  | 
2 | Oc1ncnc2[nH]ncc12 [allopurinol] |  |  |  |  |  | did not reduce albuminuria | nor delay the rate of kidney function decline
